# Measurements reported in ChEMBL document CHEMBL2203228, “Structural modifications of a 3-methoxy-2-aminopyridine compound to reduce potential for mutagenicity and time-dependent drug-drug interaction” (Bioorg Med Chem Lett, 2012).
# Tests used:
# Salmonella typhimurium = test: Mutagenic activity in Salmonella typhimurium assessed as fold increase in colony forming units by Bioluminescent Ames assay relative to control; type: toxicity, organism-based; conditions: salmonella enterica subsp. enterica serovar typhimurium
# Cytochrome P450 3A4 [1] = target: T1, Cytochrome P450 3A4 (Homo sapiens, UniProt P08684); test: Time dependent inhibition of human liver microsome CYP3A4 assessed as change in midazolam metabolism at 60 uM by two-step reaction; type: ADME; set-up: scale not given: the % may be the effect or the level left; conditions: microsomes
# Cytochrome P450 3A4 [2] = target: T1, Cytochrome P450 3A4; test: Time dependent inhibition of CYP3A4; type: ADME; conditions: TDE = time-dependent effect
# [3] = Half life in rat; type: ADME, organism-based; conditions: in vivo
# [4] = Solubility of the compound; type: physicochemical
# [5] = Clearance in rat; type: ADME, organism-based; conditions: in vivo
# [6] = Oral bioavailability in rat; type: ADME, organism-based; conditions: in vivo
# [7] = target: Serine/threonine-protein kinase B-raf (Homo sapiens, UniProt P15056, V600E); test: Inhibition of B-Raf V600E mutant -mediated MEK phosphorylation
# Chain of Serine/threonine-protein kinase B-raf (P15056 2-766 V600E limits assumed): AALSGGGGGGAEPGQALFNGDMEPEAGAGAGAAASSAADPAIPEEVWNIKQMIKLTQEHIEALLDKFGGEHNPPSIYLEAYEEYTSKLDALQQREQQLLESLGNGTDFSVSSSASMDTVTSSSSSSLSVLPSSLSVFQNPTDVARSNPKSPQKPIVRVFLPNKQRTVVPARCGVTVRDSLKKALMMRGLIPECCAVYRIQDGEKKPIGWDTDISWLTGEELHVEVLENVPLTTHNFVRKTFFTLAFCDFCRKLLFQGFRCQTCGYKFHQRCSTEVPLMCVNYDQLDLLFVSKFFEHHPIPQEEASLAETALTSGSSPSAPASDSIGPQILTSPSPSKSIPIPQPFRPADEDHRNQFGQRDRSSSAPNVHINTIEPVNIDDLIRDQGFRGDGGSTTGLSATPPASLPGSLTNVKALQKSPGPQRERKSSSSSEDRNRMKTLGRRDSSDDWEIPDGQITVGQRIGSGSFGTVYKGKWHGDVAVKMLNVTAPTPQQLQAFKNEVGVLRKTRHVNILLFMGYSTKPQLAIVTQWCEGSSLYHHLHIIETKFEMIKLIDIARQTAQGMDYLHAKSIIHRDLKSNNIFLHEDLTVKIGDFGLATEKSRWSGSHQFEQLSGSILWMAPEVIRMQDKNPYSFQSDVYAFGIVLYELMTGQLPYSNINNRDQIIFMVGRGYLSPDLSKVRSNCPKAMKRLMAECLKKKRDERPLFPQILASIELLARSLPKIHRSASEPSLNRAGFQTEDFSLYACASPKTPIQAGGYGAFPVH
# T1 sequence (P08684 whole entry): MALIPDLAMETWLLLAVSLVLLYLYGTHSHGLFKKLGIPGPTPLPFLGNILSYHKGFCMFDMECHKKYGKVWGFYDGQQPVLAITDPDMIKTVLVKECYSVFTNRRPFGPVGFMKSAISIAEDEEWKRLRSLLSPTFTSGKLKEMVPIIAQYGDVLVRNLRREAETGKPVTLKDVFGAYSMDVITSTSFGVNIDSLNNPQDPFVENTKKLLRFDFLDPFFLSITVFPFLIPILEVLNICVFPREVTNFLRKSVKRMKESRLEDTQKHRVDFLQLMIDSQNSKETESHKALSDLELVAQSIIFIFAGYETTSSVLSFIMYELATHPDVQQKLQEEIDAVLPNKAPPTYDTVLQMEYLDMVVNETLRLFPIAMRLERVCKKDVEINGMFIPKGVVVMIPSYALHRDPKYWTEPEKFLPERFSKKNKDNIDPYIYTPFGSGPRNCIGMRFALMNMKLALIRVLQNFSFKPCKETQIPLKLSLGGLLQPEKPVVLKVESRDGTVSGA
Activity (Cytochrome P450 3A4 [1]),Structure (SMILES),fold change (FC) (Salmonella typhimurium),other results
11%,Cc1c[nH]c2ncc(-c3nn(C(C)C)cc3-c3ccnc(NC[C@H](C)O)n3)cc12,< 2,–
13%,COc1cc(-c2nn(C(C)C)cc2-c2ccnc(NC[C@H](C)O)n2)cnc1N,4,inhibition (INH) (Cytochrome P450 3A4 [2]): tde; Activity (Salmonella typhimurium): Non-toxic; half-life [3]: 4.43 h; solubility [4]: 503 µM; clearance [5]: 56.3 mL/min/kg; bioavailability [6]: 43%; IC50 [7]: 6.5 nM
11%,CC(C)n1cc(-c2ccnc(NC[C@H](C)O)n2)c(-c2cnc3[nH]ccc3c2)n1,< 2,–
30%,COc1nc(-c2nn(C(C)C)cc2-c2ccnc(NC[C@H](C)O)n2)cnc1N,4,–
–,COc1cc(-c2nn(C(C)C)cc2-c2ccnc(NC[C@H](C)O)n2)c(C)nc1N,–,Activity (Salmonella typhimurium): Toxic
< 30%,CC(=O)c1cc(-c2nn(C(C)C)cc2-c2ccnc(NC[C@H](C)O)n2)cnc1N,< 2,–
< 30%,COc1cncc(-c2nn(C(C)C)cc2-c2ccnc(NC[C@H](C)O)n2)c1,< 2,–
11%,CC(C)n1cc(-c2ccnc(NC[C@H](C)O)n2)c(-c2cnc3[nH]cc(Cl)c3c2)n1,< 2,–
< 30%,CC(C)n1cc(-c2ccnc(NC[C@H](C)O)n2)c(-c2cnc3[nH]ncc3c2)n1,< 2,–
